Source: patent US8716184B2, “Herbicidal composition comprising the hydrates of saflufenacil and glyphosate or glufosinate” (Bayer Cropscience AG, priority 2010, dated 2014)

Tests used:
Assay type in all cases: in vivo
Abutilon teophrastis = assay: Herbicidal action, dicotyledonous weeds, Abutilon teophrastis (Table 2b); conditions: applied at 2-3 leaf stage, scoring 28 days after application
Procedure: (§1) The herbicidal efficacy of the active compounds or active compound mixtures was scored visually by comparing the treated pots (soil) with untreated controls. The damage and development of all above-ground plant parts was recorded. Scoring was done on a percentage scale (example values: 100% action=all plants dead or not emerged; 50% action=50% of the plants and green plant parts dead or not emerged; 0% action=no discernible action=like control plot). The score figures of in any case 2 repetitions (pots) were averaged.
(§2) Seeds or rhizome pieces of monocotyledonous and dicotyledonous weeds are placed in sandy loam in pots, covered with soil and grown in the greenhouse under good growth conditions (temperature, atmospheric humidity, water supply). Three weeks after sowing, the test plants are treated in the three-leaf stage with the compositions according to the invention. The compositions according to the invention, formulated as wettable powders or emulsion concentrates, are sprayed onto the green plant parts in various dosages using an application rate of 300 to 800 L of water/ha (converted). After the test plants have remained in the greenhouse under optimum growth conditions for about 3 to 4 weeks, the effect of the preparations is scored visually in comparison with untreated controls (scoring as in Example 1). […]

Setaria faberii = assay: Herbicidal action, monocotyledonous weeds, Setaria faberii (Table 2c); conditions: applied at 1-2 leaf stage, scoring 28 days after application
Procedure: as §1
as §2, with “Three weeks after sowing, the test plants are treated in the three-leaf stage with the compositions according to the invention.” left out, “1). The compositions according to the invention also have good herbicidal post-emergence action against a broad spectrum of economically important weed grasses and broad-leaf weeds.” for “1).”

Xanthium strumarium = assay: Herbicidal action, dicotyledonous weeds, Xanthium strumarium (Table 2b); conditions: applied at 2-3 leaf stage, scoring 28 days after application
Procedure: as §1, §2

Bidens pinata = assay: Herbicidal action on Bidens pinata (Table 3)
Procedure: as §1
(§3) When applying the combinations according to the invention, herbicidal effects are frequently observed on a harmful plant species which exceed the formal total of the effects of the herbicides present when these are applied by themselves. Alternatively, it is observed in some cases that a lower application rate is required for the herbicide combination in order to achieve the same effect on a harmful plant species in comparison with the individual products. […] When the data observed already exceed the formal total of the data in the experiments with individual applications, they likewise exceed the expected value according to Colby, which is calculated using the formula below and is likewise regarded as an indication of synergism (cf. S. R. Colby; in Weeds 15 (1967) pp. 20 to 22): E=A+B−(A·B/100)

Setaria viridis = assay: Herbicidal action, monocotyledonous weeds, Setaria viridis (Table 2c); conditions: applied at 1-2 leaf stage, scoring 28 days after application
Procedure: as §1
as §2, with “Three weeks after sowing, the test plants are treated in the three-leaf stage with the compositions according to the invention.” left out, “1). The compositions according to the invention also have good herbicidal post-emergence action against a broad spectrum of economically important weed grasses and broad-leaf weeds.” for “1).”

Euphorbia heterophylla = assay: Herbicidal action, dicotyledonous weeds, Euphorbia heterophylla (Table 2b); conditions: applied at 2-3 leaf stage, scoring 28 days after application
Procedure: as §1, §2

Cirsium Arvense = assay: Herbicidal action on Cirsium arvense (Table 2a)
Procedure: as §1, §3

Digitaria sanguinalis = assay: Herbicidal action on Digitaria sanguinalis (Table 1)
Procedure: as §1, §3

CC(C)N.O=C(O)CNCP(=O)(O)O [Glyphosate-isopropylammonium (A1b), glyphosate-isopropylammonium]
Herbicidal action [%] Abutilon teophrastis (Abutilon teophrastis; dose 100 g AS/ha): 10% | Herbicidal action [%] Setaria faberii (Setaria faberii; dose 100 g AS/ha): 10% | Herbicidal action [%] Xanthium strumarium (Xanthium strumarium; dose 100 g AS/ha): 10% | Herbicidal action [%] Bidens pinata (Bidens pinata; dose 100 g AS/ha): 10% | Herbicidal action [%] Setaria viridis (Setaria viridis; dose 100 g AS/ha): 20% | Herbicidal action [%] Euphorbia heterophylla (Euphorbia heterophylla; dose 100 g AS/ha): 10% | Herbicidal action [%] Cirsium Arvense (Cirsium Arvense; dose 675 g AS/ha): 25%

CC(C)N(C)S(=O)(=O)NC(=O)c1cc(-n2c(=O)cc(C(F)(F)F)n(C)c2=O)c(F)cc1Cl [Compound of the formula (I) (amorphous), 2-chloro-5-[3,6-dihydro-3-methyl-2,6-dioxo-4-(trifluoromethyl)-1-(2H)-pyrimidinyl]-4-fluoro-N-[[methyl-(1-methylethyl)amino]sulfonyl]benzamide]
Herbicidal action [%] on Digitaria sanguinalis (Digitaria sanguinalis; dose 25 g AS/ha): 0% | Herbicidal action [%] Cirsium Arvense (Cirsium Arvense; dose 25 g AS/ha): 55%

COCc1cnc(C2=NC(C)(C(C)C)C(=O)N2)c(C(=O)O)c1 (centres unmarked) [Imazamox (C18), imazamox]
Herbicidal action [%] Bidens pinata (Bidens pinata; dose 0.5 g AS/ha): 0% | Herbicidal action [%] Bidens pinata (Bidens pinata; dose 0.5 g AS/ha, listed as imazamox (C18)): no herbicidal action

CP(=O)(O)CCC(N)C(=O)O (centres unmarked) [Glufosinate-ammonium (A2a), glufosinate-ammonium]
Herbicidal action [%] on Digitaria sanguinalis (Digitaria sanguinalis; dose 450 g AS/ha): 15%

CC(C)N(C)S(=O)(=O)NC(=O)c1cc(-n2c(=O)cc(C(F)(F)F)n(C)c2=O)c(F)cc1Cl [Hydrate of the compound of the formula (I) = (Ba)] [2-chloro-5-[3,6-dihydro-3-methyl-2,6-dioxo-4-(trifluoromethyl)-1-(2H)-pyrimidinyl]-4-fluoro-N-[[methyl-(1-methylethyl)amino]sulfonyl]benzamide]
Herbicidal action [%] Abutilon teophrastis (Abutilon teophrastis; dose 6.25 g AS/ha): 75% | Herbicidal action [%] Setaria faberii (Setaria faberii; dose 6.25 g AS/ha): 30% | Herbicidal action [%] on Digitaria sanguinalis (Digitaria sanguinalis; dose 25 g AS/ha): 0% | Herbicidal action [%] Xanthium strumarium (Xanthium strumarium; dose 6.25 g AS/ha): 30% | Herbicidal action [%] Bidens pinata (Bidens pinata; dose 6.25 g AS/ha): 40% | Herbicidal action [%] Setaria viridis (Setaria viridis; dose 6.25 g AS/ha): 25% | Herbicidal action [%] Euphorbia heterophylla (Euphorbia heterophylla; dose 6.25 g AS/ha): 30% | Herbicidal action [%] Cirsium Arvense (Cirsium Arvense; dose 25 g AS/ha): 45%
